Laboratory results reported in patent US4272437A, “Antibacterial agents, and 4-thio azetidinone intermediates” (priority 1979, dated 1981).
Converted amounts (≈) assume the structure as drawn. Like-named read-outs stand apart in the source and are kept apart here.

What was measured:
[1] = tested on: Providencia stuartii A21205; experiment: MIC, tube dilution, Providencia stuartii (Pr. rettgeri) A21205; format: cell-based; settings: Providencia stuartii, A21205, Providencia stuartii (Pr. rettgeri) A21205; overnight 37° C.; read-out: Minimum Inhibitory Concentration (M.I.C.)
From the text: (§1) Representative compounds of the present invention were subjected to in vitro antibiotic screening against a variety of microorganisms.

[2] = tested on: Staph. aureus (Meth-Res) A-15097; experiment: MIC, tube dilution, Staphylococcus aureus A15097 (Meth-Res); format: cell-based; settings: Staph. aureus A15097 (Meth-Res), overnight 37° C.
From the text: as §1

E. coli A-20341-1 = experiment: MIC, tube dilution, Escherichia coli A20341-1; format: cell-based
From the text: as §1

[3] = tested on: Staph. aureus (Pen-Res) A-9606; experiment: MIC, tube dilution, Staphylococcus aureus A9606 (Pen-Res); format: cell-based; settings: Staph. aureus A9606 (Pen-Res), overnight 37° C.; for MIC: Staphylococcus aureus, read-out: Minimum Inhibitory Concentration (M.I.C.)
From the text: as §1

[4] = tested on: Klebsiella species A20468; experiment: MIC, tube dilution, Klebsiella species A20468; format: cell-based; settings: Klebsiella species (K. pneumoniae) A20468; overnight 37° C.; read-out: Minimum Inhibitory Concentration (M.I.C.)
From the text: as §1

Ser. marcescens A-20019 = experiment: MIC, tube dilution, Serratia marcescens A20019; format: cell-based; settings: Serratia marcescens, A20019, Serratia marcescens A20019; overnight 37° C.; read-out: Minimum Inhibitory Concentration (M.I.C.)
From the text: as §1

Ent. cloacae A-9656 = experiment: MIC, tube dilution, Enterobacter cloacae A9656; format: cell-based; settings: overnight 37° C.; for Minimum Inhibitory Concentration (M.I.C.): Enterobacter cloacae A9656
From the text: as §1

Str. pyogenes A-9604 = experiment: MIC, tube dilution, Streptococcus pyogenes A9604; format: cell-based; settings: Streptococcus pyogenes, A9604, Str. pyogenes A9604; overnight 37° C., Nutrient Broth; read-out: Minimum Inhibitory Concentration (M.I.C.)
From the text: as §1

[5] = tested on: Staph. aureus A-9537 and 50% serum; experiment: MIC, tube dilution, Staph. aureus A9537 + 50% serum; format: cell-based, Staphylococcus aureus; settings: Staphylococcus aureus, overnight 37° C., read-out: Minimum Inhibitory Concentration (M.I.C.)
From the text: as §1

Ps. aeruginosa A-21213 = experiment: MIC, tube dilution, Pseudomonas aeruginosa A21213; format: cell-based; settings: overnight 37° C., read-out: Minimum Inhibitory Concentration (M.I.C.)
From the text: as §1

Pr. morganii A-15153 = experiment: MIC, tube dilution, Proteus morganii A15153; format: cell-based; settings: Morganella morganii, A15153, Proteus morganii A15153; overnight 37° C.; read-out: Minimum Inhibitory Concentration (M.I.C.)
From the text: as §1

Staph. aureus A-9537 = experiment: MIC, tube dilution, Staphylococcus aureus A9537; format: cell-based; settings: Staphylococcus aureus, A9537, Staph. aureus A9537; overnight 37° C., Nutrient Broth; read-out: Minimum Inhibitory Concentration (M.I.C.)
From the text: as §1

K. pneumoniae A-15130 = experiment: MIC, tube dilution, Klebsiella pneumoniae A15130; format: cell-based; settings: overnight 37° C.
From the text: as §1

Ps. aeruginosa A-9843A = experiment: MIC, tube dilution, Pseudomonas aeruginosa A9843A; format: cell-based; settings: overnight 37° C.
From the text: as §1

Ent. cloacae A-9659 = experiment: MIC, tube dilution, Enterobacter cloacae A9659; format: cell-based; settings: overnight 37° C.
From the text: as §1

E. coli A-15119 = experiment: MIC, tube dilution, Escherichia coli A15119; format: cell-based; settings: overnight 37° C.
From the text: as §1

Pr. mirabilis A-9900 = experiment: MIC, tube dilution, Proteus mirabilis A9900; format: cell-based; settings: Proteus mirabilis, A9900, Proteus mirabilis A9900; overnight 37° C.; read-out: Minimum Inhibitory Concentration (M.I.C.)
From the text: as §1

Str. faecalis A-20688 = experiment: MIC, tube dilution, Streptococcus faecalis A20688; format: cell-based; settings: overnight 37° C.; for MIC: Enterococcus faecalis, A20688, Str. faecalis A20688, read-out: Minimum Inhibitory Concentration (M.I.C.)
From the text: as §1

Proteus vulgaris A21559 = experiment: MIC, tube dilution, Proteus vulgaris A21559; format: cell-based; settings: Proteus vulgaris, A21559, Proteus vulgaris A21559; overnight 37° C.; read-out: Minimum Inhibitory Concentration (M.I.C.)
From the text: as §1

Proteus rettgeri A21203 = experiment: MIC, tube dilution, Proteus rettgeri A21203; format: cell-based; settings: Providencia rettgeri, A21203, Proteus rettgeri A21203; overnight 37° C.; read-out: Minimum Inhibitory Concentration (M.I.C.)
From the text: as §1

Str. pneumoniae A-9585 = experiment: MIC, tube dilution, Streptococcus pneumoniae A9585; format: cell-based; settings: Streptococcus pneumoniae, A9585, Str. pneumoniae A9585; overnight 37° C., Nutrient Broth; read-out: Minimum Inhibitory Concentration (M.I.C.)
From the text: as §1

S. aureus A9537 = experiment: In vivo protection of mice, lethal infection with S. aureus A9537; settings: Staphylococcus aureus, A9537, im, IM, 2 treatments, 1 × 10^6 organisms; read-out: PD50
Description: Representative compounds of the present invention were also tested in vivo in mice and their PD50 (dose of compound in mg/kg required to protect 50% of the treated mice against an otherwise lethal infection of a micro-organism) values determined with respect to the test organisms shown below.

[6] = Mouse blood levels after intramuscular administration; format: in vivo; settings: average of 6 mice, read-out: Mouse blood level
Description: Mouse blood levels after intramuscular administration of representative compounds of the present invention were determined and are reported in the table below.

[7] = Escherichia coli, A203411, E. coli A20341-1; overnight 37° C.; read-out: Minimum Inhibitory Concentration (M.I.C.)

SMILES | Minimum Inhibitory Concentration (M.I.C.) [2] [µg/mL] | MIC (E. coli A-20341-1; [7]) [µg/mL] | MIC [3] [µg/mL] | MIC [4] [µg/mL] | MIC (Ser. marcescens A-20019) [µg/mL] | Minimum Inhibitory Concentration (M.I.C.) (Ent. cloacae A-9656) [µg/mL] | MIC (Str. pyogenes A-9604) [µg/mL] | MIC [5] [µg/mL] | MIC (Pr. morganii A-15153) [µg/mL] | MIC (Staph. aureus A-9537) [µg/mL] | MIC (Pr. mirabilis A-9900) [µg/mL] | MIC (Str. faecalis A-20688) [µg/mL] | other results
CSCC1=C(C(=O)O)N2C(=O)C[C@H]2S1 [Preparation 9, 2-Methylthiomethylpenem-3-carboxylic Acid] | 8 | 63 (≈ 272 µM) | 8 (≈ 34.6 µM) | > 125 | 4 (≈ 17.3 µM) | 8 | 0.25 (≈ 1.08 µM) | 63 | 4 (≈ 17.3 µM) | 0.5 (≈ 2.16 µM) | 1 (≈ 4.32 µM) | 63 (≈ 272 µM) | MIC [1]: 2 µg/mL (≈ 8.65 µM); MIC ([2]; Staphylococcus aureus, read-out: Minimum Inhibitory Concentration (M.I.C.)): 16 µg/mL (≈ 69.2 µM); MIC (E. coli A-20341-1; Escherichia coli, A203411; E. coli A20341-1; overnight 37° C.; read-out: Minimum Inhibitory Concentration (M.I.C.)): > 125 µg/mL; Minimum Inhibitory Concentration (M.I.C.) [3]: 4 µg/mL; MIC (Ent. cloacae A-9656; Enterobacter cloacae, A9656, Enterobacter cloacae A9656, read-out: Minimum Inhibitory Concentration (M.I.C.)): 16 µg/mL (≈ 69.2 µM); MIC (Ps. aeruginosa A-21213; Pseudomonas aeruginosa A21213): > 125 µg/mL; MIC (K. pneumoniae A-15130; Klebsiella pneumoniae, A15130, K. pneumoniae A15130, read-out: Minimum Inhibitory Concentration (M.I.C.)): 16 µg/mL (≈ 69.2 µM); MIC (Ps. aeruginosa A-9843A; Pseudomonas aeruginosa, A9843A, read-out: Minimum Inhibitory Concentration (M.I.C.), Pseudomonas aeruginosa A9843A): > 125 µg/mL; MIC (Ent. cloacae A-9659; Enterobacter cloacae, A9659, Enterobacter cloacae A9659, read-out: Minimum Inhibitory Concentration (M.I.C.)): 4 µg/mL (≈ 17.3 µM); MIC (E. coli A-15119; Escherichia coli, A15119, E. coli A15119, read-out: Minimum Inhibitory Concentration (M.I.C.)): 1 µg/mL (≈ 4.32 µM); Minimum Inhibitory Concentration (M.I.C.) (Str. faecalis A-20688; Str. faecalis A20688): 32 µg/mL
NCCCCCC1=C(C(=O)O)N2C(=O)C[C@H]2S1 [Example 87, 2-(5-Aminopentyl)-penem-3-carboxylic acid] | 32 | 16 (≈ 62.4 µM) | 4 (≈ 15.6 µM) | > 125 | 2 (≈ 7.8 µM) | 8 | 0.008 (≈ 0.0312 µM) | 0.13 | 4 (≈ 15.6 µM) | 0.016 (≈ 0.0624 µM) | 4 (≈ 15.6 µM) | 8 (≈ 31.2 µM) | MIC (Proteus vulgaris A21559): 16 µg/mL (≈ 62.4 µM); MIC (Proteus rettgeri A21203): 4 µg/mL (≈ 15.6 µM); MIC (Str. pneumoniae A-9585): 0.008 µg/mL (≈ 0.0312 µM); ED50 (S. aureus A9537): 0.12 mg/kg; MIC (Ps. aeruginosa A-21213; Pseudomonas aeruginosa, A21213, Pseudomonas aeruginosa A21213): > 125 µg/mL; Minimum Inhibitory Concentration (M.I.C.) (K. pneumoniae A-15130; K. pneumoniae A15130): 8 µg/mL; concentration at 10 min ([6]; 10 minutes after IM 40 mg/kg): 50300 ng/mL; concentration at 20 min ([6]; 20 minutes after IM 40 mg/kg): 47300 ng/mL; concentration at 0.5 h ([6]; 30 minutes after IM 40 mg/kg): 34600 ng/mL; concentration at 0.75 h ([6]; 45 minutes after IM 40 mg/kg): 23300 ng/mL; Minimum Inhibitory Concentration (M.I.C.) (Ps. aeruginosa A-9843A; Pseudomonas aeruginosa A9843A): 32 µg/mL; Minimum Inhibitory Concentration (M.I.C.) (Ent. cloacae A-9659; Enterobacter cloacae A9659): 16 µg/mL; Minimum Inhibitory Concentration (M.I.C.) (E. coli A-15119; E. coli A15119): 4 µg/mL
